Laboratory results: PMC8150775, “Repositioning Azelnidipine as a Dual Inhibitor Targeting CD47/SIRPα and TIGIT/PVR Pathways for Cancer Immuno-Therapy” (Biomolecules, 2021)

Experiments:
human TIGIT/PVR = molecular target: T1, human TIGIT/PVR (Homo sapiens, UniProt P15151); test: Blocking assay, human PVR protein binding to CHOK1-hTIGIT cells; settings: concentration gradient; read-out: IC50, blocking human TIGIT/PVR (hPVR binding)
T1 construct: purchased ACRO Biosystem CD5-H82F6; host or cells: soluble protein purchased; TIGIT on CHOK1-hTIGIT cells (lenti-viral transfection)
Experimental: (§1) The abilities of small molecule inhibitors (SMIs) (purchased from TargetMol, Shanghai, China) to block the binding of SIRPα protein to CHOK1-CD47 cells or PVR protein to CHOK1-TIGIT cells were determined by flow cytometry, as previously reported. The SMIs at indicated concentrations were incubated with Fc-tagged SIRPα or PVR protein for 30 min at 4°C, followed by incubating with the indicated cells for another 30 min. Human SIRPα protein (SIA-H5251, ACRO Biosystem, Beijing, China), mouse SIRPα protein (SIA-M5258, ACRO Biosystem, Beijing, China), human PVR protein (CD5-H82F6, ACRO Biosystem, Beijing, China), and mouse PVR protein (50259-M03H, Sino Biological, Beijing, China) were used. PE-conjugated anti-human IgG antibody was used to detect the Fc protein bind to cells. Cells incubated with the Fc proteins and anti-human IgG antibody without the SMIs serve as the positive control. The mean fluorescent intensity (MFI) of each sample was detected and recorded by a flow cytometry. The blocking efficacy of the SMIs was calculated as the equation: (MFI of the positive control-MFI of the SMI)/MFI of the positive control × 100%.

mouse CD47/SIRPα = molecular target: T2, mouse CD47/SIRPα (Mus musculus, UniProt P97797); test: Blocking assay, mouse SIRPα protein binding to CHOK1-mCD47 cells; settings: concentration gradient; read-out: IC50, blocking mouse CD47/SIRPα (mSirpα binding)
T2 construct: purchased ACRO Biosystem SIA-M5258; host or cells: soluble protein purchased; CD47 on CHOK1-mCD47 cells (lenti-viral transfection)
Experimental: as §1, with “(SIA-[…],” for “(SIA-H5251,”, “(SIA-[…],” for “(SIA-M5258,”, “(CD5-[…],” for “(CD5-H82F6,”, “(50259-[…],” for “(50259-M03H,”

CT26 cells = test: Phagocytosis assay, BMDM co-cultured with CFSE-labeled CT26 cells; assay type: cell-based, mouse; settings: 20 μM, 4 h
Experimental: (§2) Bone marrow-derived macrophage (BMDM) cells were isolated from C57BL/6 or BALB/c mice and induced with 20 ng/mL of GM-CSF (Peprotech, Rocky Hill, CT, USA) for 7 days. Meanwhile, the medium was replaced with fresh medium containing the cytokine and the adherent cells were harvested. Phagocytosis assays were performed by a co-culture of the BMDM macrophages with carboxyfluorescein succinimidyl ester-labeled (CFSE^+) or GFP^+ tumor cells at a ratio of 1:4 in a serum-free medium at 37 °C for 4 h, in low-attachment 96-well tissue culture plates (Corning, New York, NY, USA). The cells were harvested and the macrophages were identified by a flow cytometry using anti-F4/80 antibody (eBioscience, San Diego, CA, USA). Then, 7-AAD (eBioscience) was used to exclude the dead cells. The effects of azelnidipine (20 μM) on phagocytosis by BMDM cells were tested, and the anti-CD47 antibody (clone: miap301) were used as the positive control. Phagocytosis rate was determined with the formulation: F4/80^+GFP^+ or F4/80^+CFSE^+ cells/ Total F4/80^+ cells.
(§3) Figure 4 Azelnidipine enhances macrophage mediated phagocytosis of the tumor cells. The effects of the azelnidipine on the phagocytosis of the macrophages were tested by a co-culture of the tumor cells and BMDM cell derived from C57BL/6 or BALB/c mice. […] GFP^+ or CFSE^+ BMDMs were detected by a flow cytometry. […]

B16-OVA cells = test: Phagocytosis assay, BMDM co-cultured with GFP+ B16-OVA cells; assay type: cell-based, mouse; settings: 20 μM, 4 h
Experimental: as §2, §3

IL-12 p40 = tested on: IL-12 p40; design: method as in PMID 19438591; settings: cited from earlier work

T2 sequence (P97797 32-373 limits assumed): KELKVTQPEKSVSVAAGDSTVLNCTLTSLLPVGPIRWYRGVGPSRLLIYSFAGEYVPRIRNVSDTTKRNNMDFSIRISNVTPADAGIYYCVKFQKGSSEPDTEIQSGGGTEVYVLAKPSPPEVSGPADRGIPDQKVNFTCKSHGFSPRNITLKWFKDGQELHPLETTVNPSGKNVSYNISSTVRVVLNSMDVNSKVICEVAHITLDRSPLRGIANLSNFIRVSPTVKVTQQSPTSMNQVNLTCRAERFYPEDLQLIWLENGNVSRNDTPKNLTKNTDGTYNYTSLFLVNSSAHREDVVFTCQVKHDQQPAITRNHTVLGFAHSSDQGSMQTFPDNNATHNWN

IC50 (human TIGIT/PVR): ~28 µM | IC50 (mouse CD47/SIRPα): ~37 µM
Structure (SMILES): CC1=C(C(=O)OC(C)C)C(c2cccc([N+](=O)[O-])c2)C(C(=O)OC2CN(C(c3ccccc3)c3ccccc3)C2)=C(N)N1 (centres unmarked) [Azelnidipine]
phagocytosis of CT26 cells by BMDM cells (CT26 cells): significantly enhance | phagocytosis of B16-OVA cells by BMDM cells (B16-OVA cells): significantly enhance | secretion of IL-12 p40 mediated by immune complex (IL-12 p40): enhance the secretion of IL-12 p40
